Results published in ChEMBL document CHEMBL1201862, “PubChem BioAssay data set” (2004).
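Results reflect a 48-hour exposure of cells in 96-well plates to compound at five concentrations. Here, GI50 denotes the concentration required for 50% inhibition of growth.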 The source made the active and inactive calls. Rule as the data show it: active = GI50 up to about 1.1 µM and inactive = higher.

Key:
Test in all cases: inhibition of tumour cell growth, NCI panel, 48 h
MDA-MB-231 = tested on: MDA-MB-231
SF-295 = tested on: SF-295
T47D = tested on: T47D
RXF 393 = tested on: RXF 393
HT-29 = tested on: HT-29
M14 = tested on: M14
OVCAR-5 = tested on: OVCAR-5
HCT-15 = tested on: HCT-15
K562 = tested on: K562
PC-3 = tested on: PC-3
Hs-578T = tested on: Hs-578T
HCC 2998 = tested on: HCC 2998
TK-10 = tested on: TK-10
HOP-62 = tested on: HOP-62
MCF7 = tested on: MCF7
KM12 = tested on: KM12
LOX IMVI = tested on: LOX IMVI
U-251 = tested on: U-251
SK-MEL-2 = tested on: SK-MEL-2
ACHN = tested on: ACHN
MDA-MB-435 = tested on: MDA-MB-435
SK-MEL-5 = tested on: SK-MEL-5
COLO 205 = tested on: COLO 205
SF-539 = tested on: SF-539
UO-31 = tested on: UO-31
BT-549 = tested on: BT-549
SF-268 = tested on: SF-268
DU-145 = tested on: DU-145
HL-60 = tested on: HL-60
SK-OV-3 = tested on: SK-OV-3
OVCAR-3 = tested on: OVCAR-3
SNB-75 = tested on: SNB-75
NCI-H226 = tested on: NCI-H226
OVCAR-8 = tested on: OVCAR-8
CAKI-1 = tested on: CAKI-1
MDA-N = tested on: MDA-N
RPMI-8226 = tested on: RPMI-8226
MOLT-4 = tested on: MOLT-4
SN12C = tested on: SN12C
CCRF-CEM = tested on: CCRF-CEM
NCI-H23 = tested on: NCI-H23
SW-620 = tested on: SW-620
UACC-257 = tested on: UACC-257
EKVX = tested on: EKVX
A549 = tested on: A549
NCI-H460 = tested on: NCI-H460
UACC-62 = tested on: UACC-62
SR = tested on: SR
A498 = tested on: A498
OVCAR-4 = tested on: OVCAR-4
786-0 = tested on: 786-0
HOP-92 = tested on: HOP-92
NCI/ADR-RES = tested on: NCI/ADR-RES
SK-MEL-28 = tested on: SK-MEL-28
HCT-116 = tested on: HCT-116
IGROV-1 = tested on: IGROV-1
NCI-H522 = tested on: NCI-H522
Malme-3M = tested on: Malme-3M
SNB-19 = tested on: SNB-19

With `CC(C)(C)OC(=O)c1ccc(NCC2=CC(=O)C=CC2=O)cc1` the GI50 (MDA-MB-231) was 8.34 µM (inactive), the GI50 (SF-295) was 23 µM (inactive) and the GI50 (T47D) was 1.95 µM (inactive). For the same compound, the GI50 (RXF 393) was 11.4 µM (inactive), the GI50 (HT-29) was 17.3 µM (inactive) and the GI50 (M14) was 6.38 µM (inactive). For the same compound, the GI50 (OVCAR-5) was 17.8 µM (inactive), the GI50 (HCT-15) was 7.18 µM and the GI50 (K562) was 2.75 µM (inactive). The GI50 (PC-3) was 12 µM (inactive), the GI50 (Hs-578T) was 15.7 µM (inactive) and the GI50 (HCC 2998) was 20 µM (inactive). For the same compound, the GI50 (TK-10) was 9.25 µM (inactive), the GI50 (HOP-62) was 25.9 µM (inactive) and the GI50 (MCF7) was 0.706 µM (active). For the same compound, the GI50 (KM12) was 14.5 µM (inactive), the GI50 (LOX IMVI) was 10.7 µM (inactive) and the GI50 (U-251) was 14 µM (inactive). The GI50 (SK-MEL-2) was 16.7 µM (inactive), the GI50 (ACHN) was 10.1 µM (inactive) and the GI50 (MDA-MB-435) was 12.9 µM (inactive). For the same compound, the GI50 (SK-MEL-5) was 14.4 µM (inactive), the GI50 (COLO 205) was 2.83 µM (inactive) and the GI50 (SF-539) was 5.52 µM (inactive). For the same compound, the GI50 (UO-31) was 7.11 µM (inactive), the GI50 (BT-549) was 11.6 µM (inactive) and the GI50 (SF-268) was 11.5 µM (inactive). The GI50 (DU-145) was 16.1 µM (inactive), the GI50 (HL-60) was 1.03 µM (active) and the GI50 (SK-OV-3) was 17.1 µM (inactive). The GI50 (OVCAR-3) was 4.15 µM (inactive), the GI50 (SNB-75) was 8.28 µM (inactive) and the GI50 (NCI-H226) was 18.2 µM (inactive). For the same compound, the GI50 (OVCAR-8) was 13 µM (inactive), the GI50 (CAKI-1) was 1.48 µM (inactive) and the GI50 (MDA-N) was 12.5 µM (inactive). For the same compound, the GI50 (RPMI-8226) was 2.48 µM (inactive), the GI50 (MOLT-4) was 1.97 µM (inactive) and the GI50 (SN12C) was 11.4 µM (inactive). For the same compound, the GI50 (CCRF-CEM) was 1.76 µM (inactive), the GI50 (NCI-H23) was 8.61 µM (inactive) and the GI50 (SW-620) was 9.91 µM (inactive). For the same compound, the GI50 (UACC-257) was 12.3 µM (inactive), the GI50 (EKVX) was 14.8 µM (inactive) and the GI50 (A549) was 18.1 µM (inactive). The GI50 (NCI-H460) was 23.6 µM (inactive), the GI50 (UACC-62) was 13.2 µM (inactive) and the GI50 (SR) was 2.47 µM (inactive). For the same compound, the GI50 (A498) was 15.2 µM (inactive), the GI50 (OVCAR-4) was 8.85 µM (inactive) and the GI50 (786-0) was 9.35 µM (inactive). For the same compound, the GI50 (HOP-92) was 1.93 µM (inactive), the GI50 (NCI/ADR-RES) was 8.93 µM (inactive) and the GI50 (SK-MEL-28) was 15.6 µM (inactive). For the same compound, the GI50 (HCT-116) was 13.2 µM (inactive), the GI50 (IGROV-1) was 11.6 µM (inactive) and the GI50 (NCI-H522) was 1.63 µM (inactive). For the same compound, the GI50 (Malme-3M) was 2.89 µM (inactive) and the GI50 (SNB-19) was 15.1 µM (inactive).
